{"source": "patent US7534447B2", "about": "“Synergistic and residual pesticidal compositions containing plant essential oils” (priority 1998, dated 2009)", "key": {"cockroaches [1]": {"tested_on": "cockroaches", "assay_type": "in vivo", "method": "(§1) Glass jars were treated with different concentrations of test chemicals in acetone. The acetone was allowed to evaporate and the cockroaches were exposed to the jars. […] This experiment was repeated 2 times."}, "cockroaches [2]": {"tested_on": "cockroaches", "assay": "Example 9: glass jar residual test, benzyl alcohol with chrysanthemates", "assay_type": "in vivo", "settings": "100 mg/jar alone", "method": "as §1"}, "cockroaches [3]": {"tested_on": "cockroaches", "assay_type": "in vivo", "method": "as §1", "remark": "listed apart in the source"}, "cockroaches [4]": {"tested_on": "cockroaches", "assay": "Example 11: glass jar residual test, benzyl alcohol with signal transduction modulators", "assay_type": "in vivo", "settings": "100 mg/jar alone", "method": "as §1"}, "Spodoptera litura [5]": {"tested_on": "Spodoptera litura", "assay": "Example 20: cabbage leaf disc dip test, benzyl alcohol with pyrethrum", "settings": "in vivo", "method": "Mixtures of 5-Blend and potential synergists were tested by application to cabbage leaf discs dipped in 1% emulsions. There were 4 leaf discs per treatment; ten 3-day old (2nd instar) Spodoptera litura larvae per disc. Potential synergists and insecticides were dissolved in THFA/Tween 20 at 10% a.i.; mixed with 5-Blend at 1:10 ratio (synergist:5-Blend). In this example, THFA/Tween 20 at a ratio of 6:1 was used as a carrier/emulsifier for pyrethrum (20% pure pyrethrins) and other test substances. The sample size for each treatment is 40 (4 replicates with 10 insects each) of Spodoptera litura."}, "American cockroaches [6]": {"tested_on": "American cockroaches", "assay": "Example 21: glass jar residual test, mixtures ES-2a and ES-2b", "assay_type": "in vivo", "settings": "100 mg alone", "method": "(§2) Glass jars were treated with different concentrations of test chemicals in acetone. The acetone was allowed to evaporate and American cockroaches were exposed to the jars. […] This experiment was repeated 2 times."}, "American cockroaches [7]": {"tested_on": "American cockroaches", "assay": "Example 22: glass jar residual test, benzyl alcohol with trans-anethole", "assay_type": "in vivo", "settings": "100 mg/jar alone", "method": "as §2"}, "cockroaches [8]": {"tested_on": "cockroaches", "assay": "Example 13: glass jar residual test, thymol with carbaryl", "assay_type": "in vivo", "method": "as §1"}, "Spodoptera litura [9]": {"tested_on": "Spodoptera litura", "assay": "Example 19: cabbage leaf disc dip test, 5-Blend with chrysanthemates", "assay_type": "in vivo", "method": "Mixtures of 5-Blend (thymol, trans-anethole, α-terpineol, eugenol, and citronellal) and potential synergists were tested by application to cabbage leaf discs dipped in 1% emulsions. There were 4 leaf discs per treatment. Ten 3-day old (2nd instar) Spodoptera litura larvae per disc. Potential synergists and insecticides were dissolved in THFA/Tween 20 (carrier/emulsifier) at 10% active ingredient level; mixed with 5-Blend at 1:10 ratio of synergist to 5-Blend. […] For each treatment there were […]."}, "American Cockroach": {"tested_on": "American Cockroach", "assay_type": "in vivo", "settings": "3 mg/jar alone", "method": "as §1"}, "Spodoptera litura [10]": {"tested_on": "Spodoptera litura", "assay": "Example 18: cabbage leaf dip test, 5-Blend with conventional insecticides", "assay_type": "in vivo", "settings": "foliar, 0.01 ppm", "method": "Mixtures of 5-Blend (thymol, trans-anethole, α-terpineol, eugenol, and citronellal) with conventional insecticides were tested against 5-day old larvae of Spodoptera litura (2nd instar) on cabbage leaf pieces dipped in test solution. […] For each treatment there were 5 replicates with 50 larvae per replicate (n=250)."}, "fire ants": {"tested_on": "fire ants", "assay": "Example 5: petri dish test, 4-blend with pyrethrins and DMSO", "assay_type": "in vivo", "settings": "similar experiments using DMSO", "method": "[…] A second sample containing four plant essential oil constituents (alpha-terpineol, benzyl alcohol, phenyl ethyl alcohol and phenyl ethyl propionate) in equal proportions by weight was prepared. Then, the first and second samples were combined in a 1:1 ratio to obtain a synergized 4-blend composition, 1 part 4-blend to 0.01 parts pyrethrins. The synergized 4-blend composition was then applied to uncovered 9 cm glass petri dishes at 100 ul each. The second sample was applied to uncovered 9 cm glass petri dishes at 500 ul each."}, "cockroaches [11]": {"tested_on": "cockroaches", "assay": "Example 12: glass jar test, thymol with conventional insecticides", "assay_type": "in vivo", "settings": "1 hr.; 5 ug/jar alone", "method": "as §1"}, "cockroaches [12]": {"tested_on": "cockroaches", "assay": "Example 14: glass jar residual test, thymol with conventional insecticides", "assay_type": "in vivo", "settings": "5 ug/jar alone", "method": "as §1"}, "[13]": {"settings": "24 hrs., leaf discs dipped in 1% emulsions, mixtures 1:10 synergist to 5-Blend"}, "[14]": {"settings": "48 hrs., leaf discs dipped in 1% emulsions, mixtures 1:10 synergist to 5-Blend"}}, "note": "Like-named read-outs stand apart in the source and are kept apart here."}
{"smiles": "OCc1ccccc1", "note": "[Benzyl Alcohol]", "values": [{"measurement": "% Mortality at time interval in days after treatment", "setting": "cockroaches [1]; 1 hr., 50 mg/jar alone", "value": 0, "unit": "%"}, {"measurement": "% Mortality at time interval in days after treatment", "setting": "cockroaches [1]; 7 days, 50 mg/jar alone", "value": 0, "unit": "%"}, {"measurement": "% Mortality at time interval in days after treatment", "setting": "cockroaches [1]; 7 days, 100 mg/jar alone", "value": 0, "unit": "%"}, {"measurement": "% Mortality at time interval in days after treatment", "setting": "cockroaches [1]; 30 days, 50 mg/jar alone", "value": 0, "unit": "%"}, {"measurement": "% Mortality at time interval in days after treatment", "setting": "cockroaches [1]; 30 days, 100 mg/jar alone", "value": 0, "unit": "%"}, {"measurement": "% Mortality at time interval in days after treatment", "setting": "cockroaches [2]; 1 hr.", "value": 70, "unit": "%"}, {"measurement": "% Mortality at time interval in days after treatment", "setting": "cockroaches [2]; 7 days", "value": 0, "unit": "%"}, {"measurement": "% Mortality at time interval in days after treatment", "setting": "cockroaches [3]; 7 days, 100 mg/jar alone", "value": 0, "unit": "%"}, {"measurement": "% Mortality at time interval in days after treatment", "setting": "cockroaches [4]; 1 hr.", "value": 100, "unit": "%"}, {"measurement": "% Mortality at time interval in days after treatment", "setting": "cockroaches [4]; 7 days", "value": 0, "unit": "%"}, {"measurement": "% Mortality at time interval in days after treatment", "setting": "cockroaches [4]; 14 days", "value": 0, "unit": "%"}, {"measurement": "Mortality (%) 24 hrs.", "setting": "Spodoptera litura [5]", "value": 15, "unit": "%"}, {"measurement": "% Mortality at time interval in days after treatment", "setting": "American cockroaches [6]; 1 hr.", "value": 100, "unit": "%"}, {"measurement": "% Mortality at time interval in days after treatment", "setting": "American cockroaches [6]; 7 days", "value": 0, "unit": "%"}, {"measurement": "% Mortality at time interval in days after treatment", "setting": "American cockroaches [6]; 14 days", "value": 0, "unit": "%"}, {"measurement": "% Mortality at time interval in days after treatment", "setting": "American cockroaches [7]; 1 hr.", "value": 70, "unit": "%"}, {"measurement": "% Mortality at time interval in days after treatment", "setting": "American cockroaches [7]; 7 days", "value": 0, "unit": "%"}]}
{"smiles": "CNC(=O)Oc1cccc2ccccc12", "note": "[Carbaryl]", "values": [{"measurement": "% Mortality at time interval in days after treatment", "setting": "cockroaches [8]; 1 hr., 0.1 mg/jar alone", "value": 30, "unit": "%"}, {"measurement": "% Mortality at time interval in days after treatment", "setting": "cockroaches [8]; 1 hr., 1.0 mg/jar alone", "value": 90, "unit": "%"}, {"measurement": "% Mortality at time interval in days after treatment", "setting": "cockroaches [8]; 7 days, 0.1 mg/jar alone", "value": 0, "unit": "%"}, {"measurement": "% Mortality at time interval in days after treatment", "setting": "cockroaches [8]; 7 days, 1.0 mg/jar alone", "value": 20, "unit": "%"}, {"measurement": "% Mortality at time interval in days after treatment", "setting": "cockroaches [8]; 14 days, 1.0 mg/jar alone", "value": 0, "unit": "%"}]}
{"smiles": "CC(C)=CC1C(C(=O)O)C1(C)C", "note": "(centres unmarked) [Chrysanthemic Acid]", "values": [{"measurement": "Mortality (%)", "setting": "Spodoptera litura [9]; in vivo", "value": 0, "unit": "%"}]}
{"smiles": "CC(C)=CC1C(CO)C1(C)C", "note": "(centres unmarked) [Chrysanthemyl Alcohol]", "values": [{"measurement": "Mortality (%)", "setting": "Spodoptera litura [9]; [13]", "value": 0, "unit": "%"}, {"measurement": "Mortality (%)", "setting": "Spodoptera litura [9]; [14]", "value": 0, "unit": "%"}]}
{"smiles": "CC/C=C\\CC1=C(C)CCC1=O", "note": "[Cis-Jasmone]", "values": [{"measurement": "% Mortality at time interval in days after treatment", "setting": "American Cockroach; 1 hr.", "value": 0, "unit": "%"}, {"measurement": "% Mortality at time interval in days after treatment", "setting": "American Cockroach; 3 days", "value": 0, "unit": "%"}, {"measurement": "% Mortality at time interval in days after treatment", "setting": "American Cockroach; 5 days", "value": 0, "unit": "%"}, {"measurement": "% Mortality at time interval in days after treatment", "setting": "cockroaches [3]; 1 hr., 10 mg/jar alone", "value": 0, "unit": "%"}, {"measurement": "% Mortality at time interval in days after treatment", "setting": "cockroaches [3]; 7 days, 10 mg/jar alone", "value": 0, "unit": "%"}, {"measurement": "Mortality (%)", "setting": "Spodoptera litura [9]; [13]", "value": 0, "unit": "%"}, {"measurement": "Mortality (%)", "setting": "Spodoptera litura [9]; [14]", "value": 0, "unit": "%"}]}
{"smiles": "CC1(C)C(C=C(Cl)Cl)C1C(=O)OC(C#N)c1cccc(Oc2ccccc2)c1", "note": "(centres unmarked) [Cypermethrin]", "values": [{"measurement": "mortality at 0.01 ppm", "setting": "Spodoptera litura [10]; 24 hrs.", "value": 78, "unit": "%"}, {"measurement": "mortality at 0.01 ppm", "setting": "Spodoptera litura [10]; 48 hrs.", "value": 80, "unit": "%"}]}
{"smiles": "C[S+](C)[O-]", "note": "[DMSO, dimethyl sulfoxide]", "values": [{"measurement": "synergy with plant essential oils", "setting": "fire ants", "value": "proved to be synergistic with plant essential oils"}]}
{"smiles": "CC1(C)[C@H](C(=O)O[C@H](C#N)c2cccc(Oc3ccccc3)c2)[C@@H]1C=C(Br)Br", "note": "[Deltamethrin]", "values": [{"measurement": "% Mortality at time interval in days after treatment", "setting": "cockroaches [11]", "value": 30, "unit": "%"}, {"measurement": "% Mortality at time interval in days after treatment", "setting": "cockroaches [12]; 1 hr.", "value": 30, "unit": "%"}, {"measurement": "% Mortality at time interval in days after treatment", "setting": "cockroaches [12]; 7 days", "value": 0, "unit": "%"}, {"measurement": "% Mortality at time interval in days after treatment", "setting": "cockroaches [12]; 14 days", "value": 0, "unit": "%"}]}
{"smiles": "C=CCc1ccc(O)c(OC)c1", "note": "[Eugenol]", "values": [{"measurement": "% Mortality at time interval in days after treatment", "setting": "cockroaches [3]; 1 hr., 10 ug/jar alone", "value": 10, "unit": "%"}, {"measurement": "% Mortality at time interval in days after treatment", "setting": "cockroaches [3]; 7 days, 10 ug/jar alone", "value": 20, "unit": "%"}]}
